Measurements reported in patent US20180057507A1, “INHIBITORS OF DUAL LEUCINE ZIPPER (DLK) KINASE FOR THE TREATMENT OF DISEASE” (Board of Regents, The University of Texas System, priority 2016, published 2018).

How the values were obtained:
human DLK [1] = target: T1, human DLK (Homo sapiens, UniProt Q12852); assay: Phospho-cJun Cellular Assay; assay type: cell-based; set-up: expressed in transfected cells; settings: HEK293 cells stably transfected with Dox-inducible human DLK; p-cJun (Ser63); 5 h compound incubation
T1 sequence (Q12852 1-859): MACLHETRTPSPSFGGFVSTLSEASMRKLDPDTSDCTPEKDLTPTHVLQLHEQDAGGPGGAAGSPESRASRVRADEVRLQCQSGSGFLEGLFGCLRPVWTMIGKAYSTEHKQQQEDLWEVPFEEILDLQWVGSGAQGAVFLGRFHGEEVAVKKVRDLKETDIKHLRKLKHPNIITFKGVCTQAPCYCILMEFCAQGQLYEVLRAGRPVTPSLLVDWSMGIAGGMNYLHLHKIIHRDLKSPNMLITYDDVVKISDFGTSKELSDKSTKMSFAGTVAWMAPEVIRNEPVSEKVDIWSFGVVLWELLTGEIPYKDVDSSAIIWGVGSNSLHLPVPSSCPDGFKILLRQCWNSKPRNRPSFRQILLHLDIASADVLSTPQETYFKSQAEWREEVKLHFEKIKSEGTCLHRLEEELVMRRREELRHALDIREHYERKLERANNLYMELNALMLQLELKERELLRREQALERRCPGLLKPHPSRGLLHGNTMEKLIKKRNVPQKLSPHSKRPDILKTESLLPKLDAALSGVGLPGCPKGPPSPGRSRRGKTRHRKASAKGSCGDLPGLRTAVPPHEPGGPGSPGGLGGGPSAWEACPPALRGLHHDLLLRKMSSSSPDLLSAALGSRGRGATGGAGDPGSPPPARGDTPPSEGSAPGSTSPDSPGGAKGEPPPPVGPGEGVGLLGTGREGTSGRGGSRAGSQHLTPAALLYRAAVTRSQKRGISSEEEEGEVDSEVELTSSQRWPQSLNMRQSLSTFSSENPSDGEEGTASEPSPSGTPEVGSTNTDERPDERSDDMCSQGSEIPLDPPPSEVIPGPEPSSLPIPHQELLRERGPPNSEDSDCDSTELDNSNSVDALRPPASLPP
In short: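 HEK293 cells with doxycycline-induced human DLK (induced 20 h; uninduced cells as negative control) treated with compound for 5 h at 37 °C. Phospho-cJun (Ser63) measured in lysates with detection-antibody kit; IC50 from variable-slope dose-response fit.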

human DLK [2] = target: T1, human DLK; assay: DLK Kd Determinations (KINOMEscan KdELECT, DiscoveRx); set-up: full length of human DLK (amino acids 1-859); host or cells: transiently transfected HEK293 cells; unpurified extract; settings: fusion protein of full length human DLK (amino acids 1-859) and NFkB DNA binding domain; qPCR readout; duplicate
In short: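 Competition binding of full-length human DLK (aa 1-859)-NFkB DBD fusion, DNA-tagged, from HEK293 extracts against an immobilized ligand; 1 h at room temperature, 0.9% DMSO. Bead-bound kinase was quantified by qPCR. Kd came from an 11-point 3-fold series (top 30,000 nM), in duplicate, with Hill slope fixed at −1.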

Compound | IC50 (human DLK [1]) [nM] | Kd (human DLK [2]) [nM]
CC(C)(C)Cc1nc(-c2cnc(N)c(C(F)(F)F)c2)cn1[C@H]1[C@@H]2CN(CCF)C[C@@H]21 [Example 85, 5-(1-((1R,5S,6s)-3-(2-fluoroethyl)-3-azabicyclo[3.1.0]hexan-6-yl)-2-neopentyl-1H-imidazol-4-yl)-3-(trifluoromethyl)pyridin-2-amine] | 594 | 60
Nc1ncc(-c2cn([C@H]3[C@@H]4CN(C5COC5)C[C@@H]43)c(C3CC3)n2)cc1C(F)(F)F [Example 73, 5-(2-cyclopropyl-1-((1R,5S,6s)-3-(oxetan-3-yl)-3-azabicyclo[3.1.0]hexan-6-yl)-1H-imidazol-4-yl)-3-(trifluoromethyl)pyridin-2-amine] | 1200 | 56
CC(C)c1nc(-c2cnc(N)c(C(F)(F)F)c2)cn1C1CC2(C1)CN(C1COC1)C2 [Example 31, 5-(2-isopropyl-1-(2-(oxetan-3-yl)-2-azaspiro[3.3]heptan-6-yl)-1H-imidazol-4-yl)-3-(trifluoromethyl)pyridin-2-amine] | 2150 | 82
Nc1ncc(-c2cn(C3CC4(CC(N5CCOCC5)C4)C3)c(C3CC3)n2)cc1OC(F)(F)F (centres unmarked) [Example 41, 5-(2-cyclopropyl-1-(6-morpholinospiro[3.3]heptan-2-yl)-1H-imidazol-4-yl)-3-(trifluoromethoxy)pyridin-2-amine] | 483 | 38
Nc1ncc(-c2cn([C@H]3[C@@H]4CN(C5CCOCC5)C[C@@H]43)c(C3CC3)n2)cc1OC(F)F [Example 105, 5-(2-cyclopropyl-1-((1R,5S,6s)-3-(tetrahydro-2H-pyran-4-yl)-3-azabicyclo[3.1.0]hexan-6-yl)-1H-imidazol-4-yl)-3-(difluoromethoxy)pyridin-2-amine] | 1900 | 79
Nc1ncc(-c2cn([C@H]3[C@@H]4CN(C5CCOCC5)C[C@@H]43)c(C3CC3)n2)cc1C(F)(F)F [Example 74, 5-(2-cyclopropyl-1-((1R,5S,6s)-3-(tetrahydro-2H-pyran-4-yl)-3-azabicyclo[3.1.0]hexan-6-yl)-1H-imidazol-4-yl)-3-(trifluoromethyl)pyridin-2-amine] | 1350 | 54
Nc1ncc(-c2cn([C@H]3[C@@H]4CNC[C@@H]43)c(C3CC3)n2)cc1OC(F)(F)F [Example 53, 5-(1-((1R,5S,6s)-3-azabicyclo[3.1.0]hexan-6-yl)-2-cyclopropyl-1H-imidazol-4-yl)-3-(trifluoromethoxy)pyridin-2-amine] | 802 | 57
CN1CCN(C2C[C@@H]3[C@H](C2)[C@H]3n2cc(-c3cnc(N)c(OC(F)(F)F)c3)nc2C2CC2)CC1 (some centres unmarked) [Example 135, 5-(2-cyclopropyl-1-(3-(4-methylpiperazin-1-yl)bicyclo[3.1.0]hexan-6-yl)-1H-imidazol-4-yl)-3-(trifluoromethoxy)pyridin-2-amine] | 346 | 17
Nc1ncc(-c2cn([C@H]3[C@@H]4CC(N5CCCOCC5)C[C@@H]43)c(C3CC3)n2)cc1OC(F)(F)F (some centres unmarked) [Example 136, 5-(1-(3-(1,4-oxazepan-4-yl)bicyclo[3.1.0]hexan-6-yl)-2-cyclopropyl-1H-imidazol-4-yl)-3-(trifluoromethoxy)pyridin-2-amine] | 662 | 20
CC(C)c1nc(-c2cnc(N)c(C(F)(F)F)c2)cn1[C@H]1C[C@@H](N2CCCOCC2)C1 [Example 45, 5-(1-((1s,3s)-3-(1,4-oxazepan-4-yl)cyclobutyl)-2-isopropyl-1H-imidazol-4-yl)-3-(trifluoromethyl)pyridin-2-amine] | 6190 | 340
Nc1ncc(-c2cn3c(n2)C(C2CC2)N(C2COC2)CC3)cc1C(F)(F)F (centres unmarked) [Example 4, 5-[8-cyclopropyl-7-(oxetan-3-yl)-5H,6H,7H,8H-imidazo[1,2-a]pyrazin-2-yl]-3-(trifluoromethyl)pyridin-2-amine] | 14800 | 390
CC(C)c1nc(-c2cnc(N)c(C(F)(F)F)c2)cn1C1CC1 [Example 6, 5-[1-cyclopropyl-2-(propan-2-yl)-1H-imidazol-4-yl]-3-(trifluoromethyl)pyridin-2-amine] | 3620 | 130
CC(C)c1nc(-c2cnc(N)c(C(F)(F)F)c2)cn1[C@H]1[C@@H]2CC(N3CCCOCC3)C[C@@H]21 (some centres unmarked) [Example 142, 5-(1-(3-(1,4-oxazepan-4-yl)bicyclo[3.1.0]hexan-6-yl)-2-isopropyl-1H-imidazol-4-yl)-3-(trifluoromethyl)pyridin-2-amine] | 934 | 9.4
CC(C)c1nc(-c2cnc(N)c(OC(F)(F)F)c2)cn1[C@H]1[C@@H]2CN(C3COC3)C[C@@H]21 [Example 80, 5-(2-isopropyl-1-((1R,5S,6s)-3-(oxetan-3-yl)-3-azabicyclo[3.1.0]hexan-6-yl)-1H-imidazol-4-yl)-3-(trifluoromethoxy)pyridin-2-amine] | 1670 | 42

Second part, the molecule after the results:

IC50 (human DLK [1]) [nM] | Kd (human DLK [2]) [nM] | Compound
809 | 9 | Nc1ncc(-c2cn([C@H]3[C@@H]4CC(N5CCN(CCF)CC5)C[C@@H]43)c(C3CC3)n2)cc1C(F)(F)F (single isomer, unassigned) [Example 153b, 5-(2-cyclopropyl-1-(3-(4-(2-fluoroethyl)piperazin-1-yl)bicyclo[3.1.0]hexan-6-yl)-1H-imidazol-4-yl)-3-(trifluoromethyl)pyridin-2-amine]
493 | 38 | CC(C)c1nc(-c2cnc(N)c(OC(F)(F)F)c2)cn1[C@H]1[C@@H]2CC(N3CCOCC3)C[C@@H]21 (single isomer, unassigned) [Example 19b]
589 | 33 | CC(C)Cc1nc(-c2cnc(N)c(OC(F)(F)F)c2)cn1[C@H]1[C@@H]2CC(N3CCN(CCF)CC3)C[C@@H]21 (single isomer, unassigned) [Example 159a, 5-(1-(3-(4-(2-fluoroethyl)piperazin-1-yl)bicyclo[3.1.0]hexan-6-yl)-2-isobutyl-1H-imidazol-4-yl)-3-(trifluoromethoxy)pyridin-2-amine]
896 | 20 | CC(C)c1nc(-c2cnc(N)c(OC(F)(F)F)c2)cn1[C@H]1[C@@H]2CC(N3CCN(C)CC3)C[C@@H]21 (single isomer, unassigned) [Example 133a, 5-(2-isopropyl-1-(3-(4-methylpiperazin-1-yl)bicyclo[3.1.0]hexan-6-yl)-1H-imidazol-4-yl)-3-(trifluoromethoxy)pyridin-2-amine]
1050 | 44 | CC(C)c1nc(-c2cnc(N)c(OC(F)(F)F)c2)cn1[C@H]1[C@@H]2CC(N3CCCOCC3)C[C@@H]21 (single isomer, unassigned) [Example 20b, 5-(1-(3-(1,4-oxazepan-4-yl)bicyclo[3.1.0]hexan-6-yl)-2-isopropyl-1H-imidazol-4-yl)-3-(trifluoromethoxy)pyridin-2-amine]
1590 | 84 | CC(C)c1nc(-c2cnc(N)c(C(F)(F)F)c2)cn1[C@H]1[C@@H]2CC(O)C[C@@H]21 (single isomer, unassigned) [Example 48a, 6-(4-(6-amino-5-(trifluoromethyl)pyridin-3-yl)-2-isopropyl-1H-imidazol-1-yl)bicyclo[3.1.0]hexan-3-ol]
633 | 16 | CN1CCN(C2C[C@@H]3[C@H](C2)[C@H]3n2cc(-c3cnc(N)c(C(F)(F)F)c3)nc2C2CC2)CC1 (single isomer, unassigned) [Example 129b, 5-(2-cyclopropyl-1-(3-(4-methylpiperazin-1-yl)bicyclo[3.1.0]hexan-6-yl)-1H-imidazol-4-yl)-3-(trifluoromethyl)pyridin-2-amine]
755 | 22 | Nc1ncc(-c2cn([C@H]3[C@@H]4CC(N5CCOCC5)C[C@@H]43)c(C3CC3)n2)cc1C(F)(F)F (single isomer, unassigned) [Example 128b, 5-(2-cyclopropyl-1-(3-morpholinobicyclo[3.1.0]hexan-6-yl)-1H-imidazol-4-yl)-3-(trifluoromethyl)pyridin-2-amine]
